{"source": "the supplement of paper PMC10307832", "test_in_all_cases": "relative viability (nuclei count vs DMSO), 5 days (fraction); higher = more cells survive", "key": {"A-427": {"system": "A-427", "how_it_was_run": "(§1)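 For relative viability, nuclei counts in treated wells were divided by those in vehicle wells. Lung cancer cell lines had been pin-tool dosed in 1536-well plates the day after seeding and cultured for 5 days, then fixed and stained in one step (final 0.05% Triton X-100, 1% formaldehyde, 1 ug/ml Hoechst) and imaged at 4×. Doses were one drug alone or a fixed anchor-drug dose plus five library-drug doses (not always all listed) in √10 steps, and values are duplicate-plate medians.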"}, "ABC-1": {"system": "ABC-1", "how_it_was_run": "as §1"}, "CAL-12T": {"system": "CAL-12T", "how_it_was_run": "as §1"}, "COR-L 105": {"system": "COR-L 105", "how_it_was_run": "as §1"}, "COR-L23": {"system": "COR-L23", "how_it_was_run": "as §1"}, "HOP-62": {"system": "HOP-62", "how_it_was_run": "as §1"}, "LCLC-97TM1": {"system": "LCLC-97TM1", "how_it_was_run": "as §1"}, "LXF-289": {"system": "LXF-289", "how_it_was_run": "as §1"}, "NCI-H1437": {"system": "NCI-H1437", "how_it_was_run": "as §1"}, "NCI-H1651": {"system": "NCI-H1651", "how_it_was_run": "as §1"}, "NCI-H1915": {"system": "NCI-H1915", "how_it_was_run": "as §1"}, "NCI-H1993": {"system": "NCI-H1993", "how_it_was_run": "as §1"}, "NCI-H2009": {"system": "NCI-H2009", "how_it_was_run": "as §1"}, "NCI-H2023": {"system": "NCI-H2023", "how_it_was_run": "as §1"}, "NCI-H2342": {"system": "NCI-H2342", "how_it_was_run": "as §1"}, "NCI-H2347": {"system": "NCI-H2347", "how_it_was_run": "as §1"}, "NCI-H441": {"system": "NCI-H441", "how_it_was_run": "as §1"}, "NCI-H460": {"system": "NCI-H460", "how_it_was_run": "as §1"}, "NCI-H520": {"system": "NCI-H520", "how_it_was_run": "as §1"}, "NCI-H522": {"system": "NCI-H522", "how_it_was_run": "as §1"}, "NCI-H661": {"system": "NCI-H661", "how_it_was_run": "as §1"}, "NCI-H838": {"system": "NCI-H838", "how_it_was_run": "as §1"}, "PC-3 [JPC-3]": {"system": "PC-3 [JPC-3]", "how_it_was_run": "as §1"}}}
{"smiles": "Oc1nc(-c2ccc(C(F)(F)F)cc2)nc2c1CSCC2", "note": "[XAV939] + CC(=O)c1c(C)c2cnc(Nc3ccc(N4CCNCC4)cn3)nc2n(C2CCCC2)c1=O [Palbociclib] (partner 0.5 µM)", "values": [{"measurement": "relative viability", "setting": "A-427; first compound 0.08 µM", "result": 0.525}, {"measurement": "relative viability", "setting": "A-427; first compound 0.253 µM", "result": 0.52}, {"measurement": "relative viability", "setting": "A-427; first compound 0.8 µM", "result": 0.502}, {"measurement": "relative viability", "setting": "A-427; first compound 2.53 µM", "result": 0.504}, {"measurement": "relative viability", "setting": "ABC-1; first compound 0.253 µM", "result": 0.587}, {"measurement": "relative viability", "setting": "ABC-1; first compound 0.8 µM", "result": 0.578}, {"measurement": "relative viability", "setting": "ABC-1; first compound 2.53 µM", "result": 0.343}, {"measurement": "relative viability", "setting": "CAL-12T; first compound 0.08 µM", "result": 0.465}, {"measurement": "relative viability", "setting": "CAL-12T; first compound 0.253 µM", "result": 0.342}, {"measurement": "relative viability", "setting": "CAL-12T; first compound 0.8 µM", "result": 0.263}, {"measurement": "relative viability", "setting": "CAL-12T; first compound 2.53 µM", "result": 0.209}, {"measurement": "relative viability", "setting": "COR-L 105; first compound 0.08 µM", "result": 0.403}, {"measurement": "relative viability", "setting": "COR-L 105; first compound 0.253 µM", "result": 0.399}, {"measurement": "relative viability", "setting": "COR-L 105; first compound 0.8 µM", "result": 0.43}, {"measurement": "relative viability", "setting": "COR-L 105; first compound 2.53 µM", "result": 0.397}, {"measurement": "relative viability", "setting": "COR-L23; first compound 0.08 µM", "result": 0.291}, {"measurement": "relative viability", "setting": "COR-L23; first compound 0.253 µM", "result": 0.261}, {"measurement": "relative viability", "setting": "COR-L23; first compound 0.8 µM", "result": 0.237}, {"measurement": "relative viability", "setting": "COR-L23; first compound 2.53 µM", "result": 0.249}, {"measurement": "relative viability", "setting": "HOP-62; first compound 0.08 µM", "result": 0.467}, {"measurement": "relative viability", "setting": "HOP-62; first compound 0.253 µM", "result": 0.4}, {"measurement": "relative viability", "setting": "HOP-62; first compound 0.8 µM", "result": 0.378}, {"measurement": "relative viability", "setting": "HOP-62; first compound 2.53 µM", "result": 0.313}, {"measurement": "relative viability", "setting": "LCLC-97TM1; first compound 0.08 µM", "result": 0.237}, {"measurement": "relative viability", "setting": "LCLC-97TM1; first compound 0.253 µM", "result": 0.204}, {"measurement": "relative viability", "setting": "LCLC-97TM1; first compound 2.53 µM", "result": 0.232}, {"measurement": "relative viability", "setting": "LXF-289; first compound 0.08 µM", "result": 0.565}, {"measurement": "relative viability", "setting": "LXF-289; first compound 0.253 µM", "result": 0.571}, {"measurement": "relative viability", "setting": "LXF-289; first compound 0.8 µM", "result": 0.588}, {"measurement": "relative viability", "setting": "LXF-289; first compound 2.53 µM", "result": 0.632}, {"measurement": "relative viability", "setting": "NCI-H1437; first compound 0.08 µM", "result": 0.32}, {"measurement": "relative viability", "setting": "NCI-H1437; first compound 0.253 µM", "result": 0.297}, {"measurement": "relative viability", "setting": "NCI-H1437; first compound 0.8 µM", "result": 0.301}, {"measurement": "relative viability", "setting": "NCI-H1437; first compound 2.53 µM", "result": 0.194}, {"measurement": "relative viability", "setting": "NCI-H1651; first compound 0.08 µM", "result": 0.566}, {"measurement": "relative viability", "setting": "NCI-H1651; first compound 0.253 µM", "result": 0.521}, {"measurement": "relative viability", "setting": "NCI-H1651; first compound 0.8 µM", "result": 0.529}, {"measurement": "relative viability", "setting": "NCI-H1651; first compound 2.53 µM", "result": 0.462}, {"measurement": "relative viability", "setting": "NCI-H1915; first compound 0.08 µM", "result": 0.592}, {"measurement": "relative viability", "setting": "NCI-H1915; first compound 0.253 µM", "result": 0.54}, {"measurement": "relative viability", "setting": "NCI-H1915; first compound 0.8 µM", "result": 0.567}, {"measurement": "relative viability", "setting": "NCI-H1915; first compound 2.53 µM", "result": 0.511}, {"measurement": "relative viability", "setting": "NCI-H1993; first compound 0.08 µM", "result": 0.617}, {"measurement": "relative viability", "setting": "NCI-H1993; first compound 0.253 µM", "result": 0.474}, {"measurement": "relative viability", "setting": "NCI-H1993; first compound 0.8 µM", "result": 0.469}, {"measurement": "relative viability", "setting": "NCI-H1993; first compound 2.53 µM", "result": 0.5}, {"measurement": "relative viability", "setting": "NCI-H2009; first compound 0.08 µM", "result": 0.275}, {"measurement": "relative viability", "setting": "NCI-H2009; first compound 0.253 µM", "result": 0.239}, {"measurement": "relative viability", "setting": "NCI-H2009; first compound 0.8 µM", "result": 0.188}, {"measurement": "relative viability", "setting": "NCI-H2009; first compound 2.53 µM", "result": 0.317}, {"measurement": "relative viability", "setting": "NCI-H2023; first compound 0.08 µM", "result": 0.405}, {"measurement": "relative viability", "setting": "NCI-H2023; first compound 0.253 µM", "result": 0.291}, {"measurement": "relative viability", "setting": "NCI-H2023; first compound 0.8 µM", "result": 0.328}, {"measurement": "relative viability", "setting": "NCI-H2023; first compound 2.53 µM", "result": 0.295}, {"measurement": "relative viability", "setting": "NCI-H2342; first compound 0.08 µM", "result": 0.555}, {"measurement": "relative viability", "setting": "NCI-H2342; first compound 0.253 µM", "result": 0.464}, {"measurement": "relative viability", "setting": "NCI-H2342; first compound 0.8 µM", "result": 0.468}, {"measurement": "relative viability", "setting": "NCI-H2342; first compound 2.53 µM", "result": 0.467}, {"measurement": "relative viability", "setting": "NCI-H2347; first compound 0.08 µM", "result": 0.403}, {"measurement": "relative viability", "setting": "NCI-H2347; first compound 0.253 µM", "result": 0.412}, {"measurement": "relative viability", "setting": "NCI-H2347; first compound 0.8 µM", "result": 0.435}, {"measurement": "relative viability", "setting": "NCI-H2347; first compound 2.53 µM", "result": 0.429}, {"measurement": "relative viability", "setting": "NCI-H441; first compound 0.08 µM", "result": 0.222}, {"measurement": "relative viability", "setting": "NCI-H441; first compound 0.253 µM", "result": 0.189}, {"measurement": "relative viability", "setting": "NCI-H441; first compound 0.8 µM", "result": 0.182}, {"measurement": "relative viability", "setting": "NCI-H441; first compound 2.53 µM", "result": 0.189}, {"measurement": "relative viability", "setting": "NCI-H460; first compound 0.08 µM", "result": 0.223}, {"measurement": "relative viability", "setting": "NCI-H460; first compound 0.253 µM", "result": 0.177}, {"measurement": "relative viability", "setting": "NCI-H460; first compound 0.8 µM", "result": 0.12}, {"measurement": "relative viability", "setting": "NCI-H460; first compound 2.53 µM", "result": 0.0927}, {"measurement": "relative viability", "setting": "NCI-H520; first compound 0.08 µM", "result": 0.252}, {"measurement": "relative viability", "setting": "NCI-H520; first compound 0.8 µM", "result": 0.183}, {"measurement": "relative viability", "setting": "NCI-H520; first compound 2.53 µM", "result": 0.211}, {"measurement": "relative viability", "setting": "NCI-H522; first compound 0.08 µM", "result": 1.05}, {"measurement": "relative viability", "setting": "NCI-H522; first compound 0.253 µM", "result": 0.884}, {"measurement": "relative viability", "setting": "NCI-H522; first compound 0.8 µM", "result": 0.973}, {"measurement": "relative viability", "setting": "NCI-H522; first compound 2.53 µM", "result": 1.03}, {"measurement": "relative viability", "setting": "NCI-H661; first compound 0.08 µM", "result": 0.407}, {"measurement": "relative viability", "setting": "NCI-H661; first compound 0.253 µM", "result": 0.394}, {"measurement": "relative viability", "setting": "NCI-H661; first compound 0.8 µM", "result": 0.409}, {"measurement": "relative viability", "setting": "NCI-H661; first compound 2.53 µM", "result": 0.388}, {"measurement": "relative viability", "setting": "NCI-H838; first compound 0.08 µM", "result": 0.217}, {"measurement": "relative viability", "setting": "NCI-H838; first compound 0.253 µM", "result": 0.203}, {"measurement": "relative viability", "setting": "NCI-H838; first compound 0.8 µM", "result": 0.179}, {"measurement": "relative viability", "setting": "NCI-H838; first compound 2.53 µM", "result": 0.148}, {"measurement": "relative viability", "setting": "PC-3 [JPC-3]; first compound 0.253 µM", "result": 0.5}, {"measurement": "relative viability", "setting": "PC-3 [JPC-3]; first compound 0.8 µM", "result": 0.523}, {"measurement": "relative viability", "setting": "PC-3 [JPC-3]; first compound 2.53 µM", "result": 0.485}]}
